This is an account of results in patent publication US20220106304A1, “Transcription Factor BRN2 Inhibitory Compounds as Therapeutics and Methods for Their Use” (The University of British Columbia, priority 2018, published 2022).

The target in one data set is T1, BRN2 (Homo sapiens, UniProt P20265).
T1 sequence (P20265 1-443): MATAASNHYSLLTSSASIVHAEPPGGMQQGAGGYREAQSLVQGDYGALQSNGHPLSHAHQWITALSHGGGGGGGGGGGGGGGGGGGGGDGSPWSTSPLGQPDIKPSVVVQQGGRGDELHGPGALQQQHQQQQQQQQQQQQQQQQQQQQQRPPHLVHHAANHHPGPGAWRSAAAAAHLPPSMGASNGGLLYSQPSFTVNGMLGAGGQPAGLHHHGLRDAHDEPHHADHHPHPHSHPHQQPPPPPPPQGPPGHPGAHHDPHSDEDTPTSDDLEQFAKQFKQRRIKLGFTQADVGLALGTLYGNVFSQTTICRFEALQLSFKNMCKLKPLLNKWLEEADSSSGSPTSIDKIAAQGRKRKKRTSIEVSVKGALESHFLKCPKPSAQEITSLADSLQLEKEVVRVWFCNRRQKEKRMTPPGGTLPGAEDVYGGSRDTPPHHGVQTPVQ
The data set is described as follows: cell-based. The note with it: negative = activation; for inhibition at 10 µM: read-out: % BRN2 Inhibition (10 μM), 10 μM compound, 24 hours, 42D^ENZR cells stably expressing BRN2-luciferase reporter; for inhibition at 30 µM: read-out: % BRN2 Inhibition (30 μM), 30 μM compound, 24 hours, 42D^ENZR cells stably expressing BRN2-luciferase reporter. An excerpt: Decreased expression of luciferase protein is validated via western blot to confirm downregulation and avoid false positive molecules that inhibit luciferase protein activity and not BRN2-drive luciferase expression. Molecules are prioritized by their inhibition potency to measure direct interaction with BRN2 in Step 2.
In TABLES 1 and 2, when a single value is mentioned in columns Met Stab % and T½, it refers to compound's stability in MLM and when two values are given they represent HLM/MLM. There is a distinction in TABLES 1 and 2 difference between “Active” and “Specific” or “Specificity”. Compounds are first tested to quantify inhibition of BRN2 transcriptional activity in a luciferase assay to determine “Activity” at […] and 30 μM concentrations. […] Where data is not available “na” is inserted. Where data has yet to be calculated the notation “nc” is used.
(In a reporter assay the amount or activity of a reporter protein is the signal.)

The nature of data set [1]: Liver microsome metabolic stability, MLM. The class given is in vitro ADME. The note with it: MLM (single value or second of two), 1 μM compound, 0.25 mg/mL protein; for Met Stab % (60 mins HLM/MLM): percent remaining at 60 min, 1 mM NADPH; for half-life at 1 µM: mouse, liver microsomes, pH 7.4, read-out: T1/2 in (mins HLM/MLM). How it is done:
Potassium phosphate buffer (Kphos) was prepared by adding 0.647 g potassium phosphate monobasic (KH2PO4) and 3.527 g potassium phosphate dibasic ([…]) to 400 mL of Milli-Q water. pH of the buffer was adjusted to 7.4 and volume was made up to 500 mL.
Microsomes (20 mg/mL) were diluted in KH2PO4 buffer to prepare a concentration of 0.357 mg/mL.
Stock solutions of BRN2 inhibitors were prepared in DMSO at a concentration of 1 mM
A stock solution of 3.33 mM NADPH (3.33×) was prepared by dissolving appropriate amount of NADPH in KH2PO4 buffer.
Total Incubation volume: 100 μL
Compound concentration: 1 μM
Protein Concentration: 0.25 mg/mL
An 1120 μL aliquot of Kphos buffer (50 mM, pH 7.4) containing liver microsomes (0.357 mg/mL) were added to individual 2 mL tubes (final concentration 0.25 mg/mL). Test compounds (1 mM) and positive controls were directly spiked into respective tubes to prepare a concentration of 1.428 μM (final concentration 1 μM). From the above mix, 70 μL was added to individual wells of 96 well reaction plates and pre-incubated in a 37° C. water bath for 5 min. All the reactions were initiated by adding 30 μL of 3.33 mM NADPH (final concentration 1 mM). Reactions without NADPH and buffer controls (minus NADPH) at 0 min and 60 min were also incubated to rule out non-NADPH metabolism or chemical instability in the incubation buffer. All reactions were terminated using 100 μL of ice-cold acetonitrile containing internal standard at 0, 5, 15, 30 and 60 min. The plates were centrifuged at 4000 RPM for 15 min and 100 μL aliquots were submitted for analysis by LC-MS/MS.
Samples were monitored for parent compounds disappearance in MRM mode using LC-MS/MS.
The percent remaining of test compounds and positive control in each sample was determined by considering peak area ratio in the 0 minute sample as 100%. The Half-life of compounds in microsomes is calculated by formula:
Half-life (t½) (min)=0.693/k, where k is gradient of line determined from plot of peak area ratio (compound peak area/internal standard peak area) against time.
In vitro intrinsic clearance (CL'int) (units in mL/min/kg) was calculated using the formula.
[formula] • For liver microsomes, scaling factor used was 45 mg microsomal protein per gm liver. • Indicates liver weight (gm) which varies species wise. For mice the liver weights are 90 gm.
Where data is not available “na” is inserted.

In general, inhibition refers to the change of the read-out against control, counted positive when it falls.

Consider `Cn1c(-c2ccc(-c3cccc(C#N)c3)o2)nc2ccccc21` [VPC-18-63, 3-(5-(1-methyl-1H-benzo[d]imidazol-2-yl)furan-2-yl)benzonitrile], for which, at BRN2, the inhibition at 10 µM was found to be 72% and the inhibition at 30 µM is 94%. Further, in data set [1], the “Met Stab % (60 mins HLM/MLM)” value is recorded as 0%.

Regarding `FC(F)(F)c1ccc2cc(-c3csc(N4CCCC4)n3)oc2c1` [VPC-18-72, 2-(pyrrolidin-1-yl)-4-(6-(trifluoromethyl)benzofuran-2-yl)thiazole], on BRN2, the inhibition at 10 µM was 45.9% and the inhibition at 30 µM stood at 62.4%. In data set [1], the “Met Stab % (60 mins HLM/MLM)” value worked out at 8% and the half-life at 1 µM worked out at 18 min.

Consider `FC(F)(F)c1ccc2cc(-c3csc(NC4CC4)n3)oc2c1` [VPC-18-73, N-cyclopropyl-4-(6-(trifluoromethyl)benzofuran-2-yl)thiazol-2-amine], for which, at BRN2, the inhibition at 10 µM came to 78.8% and the inhibition at 30 µM was 95.7%. In data set [1], the “Met Stab % (60 mins HLM/MLM)” value came to 2% and the half-life at 1 µM came out at 11 min.

Turning to `Cc1c(-c2ccc(-c3ccccc3)o2)oc2ccccc12` [VPC-18-74, 3-methyl-2-(5-phenylfuran-2-yl)benzofuran], on BRN2, the inhibition at 10 µM was 96.7% and the inhibition at 30 µM stood at 99%. Moreover, in data set [1], the “Met Stab % (60 mins HLM/MLM)” value is given as 2% and the half-life at 1 µM was determined as 11 min.

For the compound `c1coc(-c2nc(-c3cc4ncccc4o3)cs2)c1` [VPC-18-75, 2-(2-(furan-2-yl)thiazol-4-yl)furo[3,2-b]pyridine], at BRN2, the inhibition at 10 µM was determined as 71.9% and the inhibition at 30 µM came out at 91.9%. Also, the “Met Stab % (60 mins HLM/MLM)” value in data set [1] was found to be 0%.

With `FC(F)(F)c1ccc2nc(-c3csc(C4=CCOCC4)n3)oc2c1` [VPC-18-77], at BRN2, the inhibition at 10 µM turned out to be 11.3% and the inhibition at 30 µM is 63.4%. In addition, in data set [1], the “Met Stab % (60 mins HLM/MLM)” value was determined as 24% and the half-life at 1 µM came to 29 min.

With `FC(F)(F)c1ccc2cc(-c3csc(N4CCOCC4)n3)oc2c1` [VPC-18-78, 4-(4-(6-(trifluoromethyl)benzofuran-2-yl)thiazol-2-yl)morpholine], on BRN2, the inhibition at 10 µM came out at 43.6% and the inhibition at 30 µM stood at 79.6%. In data set [1], the “Met Stab % (60 mins HLM/MLM)” value is given as 25% and the half-life at 1 µM was 30 min.

Consider `N#Cc1ccc2cc(-c3csc(-c4ccco4)n3)oc2c1` [VPC-18-80], for which, on BRN2, the inhibition at 10 µM was 42% and the inhibition at 30 µM worked out at 44%. Besides, in data set [1], the “Met Stab % (60 mins HLM/MLM)” value was 0%.

As to `Cn1c(-c2ccc(C3CCNCC3)o2)nc2ccc(C(F)(F)F)cc21` [VPC-18-82], at BRN2, the inhibition at 10 µM worked out at 11% and the inhibition at 30 µM was found to be 50%. Besides, in data set [1], the “Met Stab % (60 mins HLM/MLM)” value was found to be 100% and the half-life at 1 µM was above 60 min.

Turning to `FC(F)(F)c1ccc2cc(-c3csc(NCC4CC4)n3)oc2c1` [VPC-18-86], on BRN2, the inhibition at 10 µM worked out at 32% and the inhibition at 30 µM stood at 92%. Further, in data set [1], the “Met Stab % (60 mins HLM/MLM)” value is given as 5% and the half-life at 1 µM was 13 min.

Take `FC(F)(F)c1ccc2nc(-c3ccc(-c4ccccc4)o3)[nH]c2c1` [VPC-18-87]: on BRN2, the inhibition at 10 µM came out at 85% and the inhibition at 30 µM was found to be 87%. In addition, in data set [1], the “Met Stab % (60 mins HLM/MLM)” value is 37% and the half-life at 1 µM was determined as 40 min.

Consider `N#Cc1c(-c2csc(-c3ccco3)n2)oc2ccccc12` [VPC-18-88, 2-(2-(furan-2-yl)thiazol-4-yl)benzofuran-3-carbonitrile], for which, on BRN2, the inhibition at 10 µM was 76% and the inhibition at 30 µM came to 96%. Besides, in data set [1], the “Met Stab % (60 mins HLM/MLM)” value was 0% and the half-life at 1 µM worked out at 9 min.

As for `FC(F)(F)c1ccc2cc(-c3csc(C4CCNCC4)n3)oc2c1` [VPC-18-89, 2-(piperidin-4-yl)-4-(6-(trifluoromethyl)benzofuran-2-yl)thiazole], at BRN2, the inhibition at 10 µM was determined as 65% and the inhibition at 30 µM amounted to 98%. In data set [1], the “Met Stab % (60 mins HLM/MLM)” value came out at 65% and the half-life at 1 µM was above 60 min.

As to `Clc1ccc2cc(-c3csc(N4CC5CC4CO5)n3)oc2c1` (stereo not shown) [VPC-18-91, 5-(4-(6-chlorobenzofuran-2-yl)thiazol-2-yl)-2-oxa-5-azabicyclo[2.2.1]heptane], on BRN2, the inhibition at 10 µM came to 70% and the inhibition at 30 µM came to 96%. Further, in data set [1], the “Met Stab % (60 mins HLM/MLM)” value is 2% and the half-life at 1 µM came to 11 min.

In the case of `Clc1ccc2nc(-c3ccc(-c4ccccc4)o3)[nH]c2c1` [VPC-18-92, 6-chloro-2-(5-phenylfuran-2-yl)-1H-benzo[d]imidazole], on BRN2, the inhibition at 10 µM came to 83% and the inhibition at 30 µM came to 98.4%. In addition, in data set [1], the “Met Stab % (60 mins HLM/MLM)” value came to 0% and the half-life at 1 µM is 6 min.

Consider `Fc1ccc(-c2nc(-c3nc4ccc(C(F)(F)F)cc4o3)cs2)o1` [VPC-18-93], for which, at BRN2, the inhibition at 10 µM was -9.9% and the inhibition at 30 µM came to 30.2%. In data set [1], the “Met Stab % (60 mins HLM/MLM)” value came to 26% and the half-life at 1 µM was 34 min.

With `Clc1ccc2cc(-c3csc(-c4ccn[nH]4)n3)oc2c1` [VPC-18-96, 4-(6-chlorobenzofuran-2-yl)-2-(1H-pyrazol-5-yl)thiazole], on BRN2, the inhibition at 10 µM stood at 83.5% and the inhibition at 30 µM is 92.5%. Moreover, in data set [1], the “Met Stab % (60 mins HLM/MLM)” value was 35% and the half-life at 1 µM amounted to 45 min.

Regarding `FC(F)(F)c1ccc2cc(-c3csc(-c4ncco4)n3)oc2c1` [VPC-18-98, 2-(4-(6-(trifluoromethyl)benzofuran-2-yl)thiazol-2-yl)oxazole], on BRN2, the inhibition at 10 µM stood at 84% and the inhibition at 30 µM was determined as 86%. For the same compound, in data set [1], the “Met Stab % (60 mins HLM/MLM)” value is 53% and the half-life at 1 µM was above 60 min.

Take `Clc1ccc2cc(-c3csc(-c4ncco4)n3)oc2c1` [VPC-18-99]: at BRN2, the inhibition at 10 µM came out at 29.3% and the inhibition at 30 µM turned out to be 39.2%. Also, in data set [1], the “Met Stab % (60 mins HLM/MLM)” value came to 28% and the half-life at 1 µM is 36 min.

As for `Fc1sc(-c2ccco2)nc1-c1cc2ccc(C(F)(F)F)cc2o1` [VPC-18-100], on BRN2, the inhibition at 10 µM turned out to be 8.8% and the inhibition at 30 µM is 56.3%. In addition, in data set [1], the “Met Stab % (60 mins HLM/MLM)” value was 1% and the half-life at 1 µM turned out to be 10 min.

As to `Clc1ccc2cc(-c3cncc(-c4ccc[nH]4)n3)oc2c1` [VPC-18-130], in data set [1], the “Met Stab % (60 mins HLM/MLM)” value is listed as 1% and the half-life at 1 µM stood at 9 min.

`Clc1ccc2cc(-c3cccc(-c4ccc[nH]4)c3)oc2c1` [VPC-18-153]: in data set [1], the “Met Stab % (60 mins HLM/MLM)” value was determined as 2% and the half-life at 1 µM was determined as 11 min.

Turning to `Clc1ccc2cc(-c3csc(-c4nccs4)n3)oc2c1` [VPC-18-165], in data set [1], the “Met Stab % (60 mins HLM/MLM)” value is recorded as 6% and the half-life at 1 µM worked out at 16 min.

For `Fc1c(Cl)ccc2cc(-c3csc(-c4ccc[nH]4)n3)oc12` [VPC-18-166], in data set [1], the “Met Stab % (60 mins HLM/MLM)” value was 1% and the half-life at 1 µM was found to be 10 min.
